Experimental data from ChEMBL document CHEMBL1201862, “PubChem BioAssay data set” (2004).
Activity calls are given as the source filed them.

Experiments:
[1] = Luminescence Cell-Based Dose Retest to Confirm Inhibitors of Cancer Stem Cells. [Related pubchem assays (depositor defined):AID2717, AID2721]; format: functional; conditions: Homo sapiens
[2] = Fluorescence-based cell-based high throughput dose response assay for inhibitors of the interaction of nucleotide-binding oligomerization domain containing 2 (NOD2) and the receptor-interacting serine-threonine kinase 2 (RIPK2).; format: functional; conditions: Homo sapiens
[3] = viability loss in human Jurkat cells – cell-based, luminescence, cytotoxicity control for P. falciparum gametocyte viability project, dose response (AID 1117277); format: functional;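 further: potency reflects loss of cellular ATP meaning fewer viable cells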
[4] = viability inhibitors of stage V gametocytes – luminescence, dose response (AID 1117278); format: functional, cell-based;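 further: gametocytes exposed to compound for 24 hours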
[5] = target: T1, Sentrin-specific protease 8 (Homo sapiens, UniProt Q96LD8); format: functional
T1 sequence (Q96LD8 whole entry): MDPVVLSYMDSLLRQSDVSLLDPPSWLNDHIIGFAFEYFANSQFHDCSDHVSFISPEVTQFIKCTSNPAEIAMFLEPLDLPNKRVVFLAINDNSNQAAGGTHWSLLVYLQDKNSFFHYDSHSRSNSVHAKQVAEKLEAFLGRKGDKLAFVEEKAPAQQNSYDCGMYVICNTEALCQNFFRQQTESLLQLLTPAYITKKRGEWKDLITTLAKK

[6] = target: T1, Sentrin-specific protease 8; format: functional; remark: listed apart in the source
[7] = target: NAD-dependent protein deacylase sirtuin-5, mitochondrial (Homo sapiens, UniProt Q9NXA8); assay: sirtuin-5 deacylation blockers, concentration series – biochemical, fluorescence imaging, cherry-pick, set 5, dose response (AID 720591);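 further: desuccinylation of succinyl peptide AMC substrate read as fluorescence after trypsin release; potency of inhibitors that lower fluorescence and may act on trypsin instead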
Chain of NAD-dependent protein deacylase sirtuin-5, mitochondrial (Q9NXA8 whole entry): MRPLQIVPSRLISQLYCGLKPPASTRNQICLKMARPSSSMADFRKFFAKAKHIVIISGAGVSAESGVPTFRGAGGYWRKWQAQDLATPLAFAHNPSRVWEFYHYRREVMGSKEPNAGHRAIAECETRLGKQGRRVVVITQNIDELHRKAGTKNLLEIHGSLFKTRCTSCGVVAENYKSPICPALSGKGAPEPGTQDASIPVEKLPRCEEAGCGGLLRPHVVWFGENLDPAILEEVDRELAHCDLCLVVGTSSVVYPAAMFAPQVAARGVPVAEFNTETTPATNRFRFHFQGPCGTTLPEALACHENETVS

Phospholipase A2 = Phospholipase A2 (Homo sapiens, UniProt P04054); format: functional;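 further: confirmatory dose-response counterscreen on phospholipase A2, testing hits that came from an ultra-high-throughput screen for ATG4B inhibitors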
Chain of Phospholipase A2 (P04054 whole entry): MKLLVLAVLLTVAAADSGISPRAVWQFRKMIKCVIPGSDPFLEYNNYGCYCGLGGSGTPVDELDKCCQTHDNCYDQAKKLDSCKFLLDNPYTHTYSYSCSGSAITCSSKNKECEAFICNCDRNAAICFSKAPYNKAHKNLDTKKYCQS

[8] = target: Heat shock protein HSP 90-alpha (Homo sapiens, UniProt P07900); format: functional, organism-based
Cysteine protease ATG4B = target: T2, Cysteine protease ATG4B (Homo sapiens, UniProt Q9Y4P1); format: functional;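 further: Fluorescence-based dose-response confirmation assay measuring inhibition of ATG4B activity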
T2 sequence (Q9Y4P1 whole entry): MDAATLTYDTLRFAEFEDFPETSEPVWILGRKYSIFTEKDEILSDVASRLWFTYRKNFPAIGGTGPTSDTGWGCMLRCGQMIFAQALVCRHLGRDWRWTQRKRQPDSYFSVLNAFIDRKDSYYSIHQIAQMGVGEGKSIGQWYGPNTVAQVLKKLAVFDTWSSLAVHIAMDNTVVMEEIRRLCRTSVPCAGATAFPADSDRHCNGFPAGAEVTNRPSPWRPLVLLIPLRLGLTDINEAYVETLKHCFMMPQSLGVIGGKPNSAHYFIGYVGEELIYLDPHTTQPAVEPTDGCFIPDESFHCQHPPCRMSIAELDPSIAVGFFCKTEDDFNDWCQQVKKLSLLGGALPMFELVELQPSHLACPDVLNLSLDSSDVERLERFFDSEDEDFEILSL

[9] = target: T3, Mannose-6-phosphate isomerase (Homo sapiens, UniProt P34949); assay: MPI inhibition at elevated mannose 6-phosphate – biochemical, fluorescence intensity, high mannose 6-phosphate, primary screen (AID 1220)
T3 sequence (P34949 whole entry): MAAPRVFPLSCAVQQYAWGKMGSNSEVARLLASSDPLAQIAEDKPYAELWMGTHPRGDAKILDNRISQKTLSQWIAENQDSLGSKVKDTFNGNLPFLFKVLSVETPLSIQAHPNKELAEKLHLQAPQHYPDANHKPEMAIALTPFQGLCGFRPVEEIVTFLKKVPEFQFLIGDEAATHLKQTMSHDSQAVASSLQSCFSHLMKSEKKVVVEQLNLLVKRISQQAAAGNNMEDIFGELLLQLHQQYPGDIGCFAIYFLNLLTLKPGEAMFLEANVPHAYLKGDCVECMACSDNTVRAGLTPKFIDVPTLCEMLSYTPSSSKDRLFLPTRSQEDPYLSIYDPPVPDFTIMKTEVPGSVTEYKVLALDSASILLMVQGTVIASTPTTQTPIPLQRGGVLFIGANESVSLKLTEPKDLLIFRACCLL

[10] = target: T4, Rac GTPase-activating protein 1 (Homo sapiens, UniProt Q9H0H5); assay: blockers of MgcRacGAP-driven Rac1 GTP hydrolysis – biochemical, ADP Hunter fluorescence, primary and confirmatory, confirmation (AID 624330); format: functional
T4 sequence (Q9H0H5 whole entry): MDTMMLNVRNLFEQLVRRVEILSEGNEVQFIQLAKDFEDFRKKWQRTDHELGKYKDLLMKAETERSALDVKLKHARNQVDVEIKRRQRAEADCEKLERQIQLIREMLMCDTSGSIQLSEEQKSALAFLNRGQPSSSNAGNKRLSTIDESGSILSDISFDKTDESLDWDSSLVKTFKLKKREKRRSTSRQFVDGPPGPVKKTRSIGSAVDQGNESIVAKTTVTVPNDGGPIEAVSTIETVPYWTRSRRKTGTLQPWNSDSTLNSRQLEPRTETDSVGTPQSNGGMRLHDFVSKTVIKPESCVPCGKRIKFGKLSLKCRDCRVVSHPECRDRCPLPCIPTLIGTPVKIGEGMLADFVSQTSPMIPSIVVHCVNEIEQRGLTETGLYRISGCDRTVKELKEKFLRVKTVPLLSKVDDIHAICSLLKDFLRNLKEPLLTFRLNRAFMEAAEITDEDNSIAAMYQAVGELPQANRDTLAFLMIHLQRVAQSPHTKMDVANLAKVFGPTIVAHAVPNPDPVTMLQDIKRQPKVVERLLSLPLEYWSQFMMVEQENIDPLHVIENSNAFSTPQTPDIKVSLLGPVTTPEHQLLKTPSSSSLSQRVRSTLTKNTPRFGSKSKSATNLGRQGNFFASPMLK

HEK293 [11] = assay: EBV LMP1 TES2 canonical NF-kB signalling blockers – cell-based, HEK293, luciferase, cherry-pick, dose response (AID 588343); format: functional; conditions: Homo sapiens
HEK293 [12] = assay: cells; format: functional, cell-based; conditions: Homo sapiens
[13] = target: T5, Nuclear receptor subfamily 0 group B member 1 (Homo sapiens, UniProt P51843); assay: Luminescence-based cell-based high throughput dose response assay for inhibitors of the orphan nuclear receptor subfamily 0, group B, member 1 (DAX1; NR0B1). [Related pubchem assays (depositor defined):AID504766, AID504790]; format: functional
T5 sequence (P51843 whole entry): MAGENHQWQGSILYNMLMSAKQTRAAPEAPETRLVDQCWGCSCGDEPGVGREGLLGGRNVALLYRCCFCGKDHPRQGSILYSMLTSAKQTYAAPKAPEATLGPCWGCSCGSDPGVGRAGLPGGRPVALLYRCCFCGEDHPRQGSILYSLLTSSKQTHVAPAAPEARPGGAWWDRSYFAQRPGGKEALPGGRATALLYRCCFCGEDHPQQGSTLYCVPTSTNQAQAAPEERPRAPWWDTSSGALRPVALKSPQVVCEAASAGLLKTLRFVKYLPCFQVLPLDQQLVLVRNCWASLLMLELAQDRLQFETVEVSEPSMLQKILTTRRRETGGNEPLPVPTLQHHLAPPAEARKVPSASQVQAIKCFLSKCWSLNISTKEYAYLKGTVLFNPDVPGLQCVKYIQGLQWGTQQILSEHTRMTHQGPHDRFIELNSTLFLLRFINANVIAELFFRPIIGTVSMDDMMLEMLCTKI

Vero = assay: viability loss in Vero cells – cell-based, plate reader, cherry-pick samples, cytotoxicity control, dose response (AID 687020); format: functional; conditions: Chlorocebus sabaeus
[14] = non-specific 3'UTR reporter inhibition in Clone20-Shn3RL – cell-based, Renilla luciferase, cherry-picked, counter-screen for Shn3 inhibitor project, dose response (AID 624133); format: functional
[15] = reduction of Shn3 3'UTR-driven luciferase in osteoblasts – cell-based, Clone20 osteoblasts, firefly luciferase, cherry-picked, dose response (AID 624132); format: functional;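 further: firefly luciferase luminescence from reporter carrying the Shn3 3'UTR in osteoblasts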
[16] = loss of viability in HepG2 cells – cell-based, CellTiter-Glo, cherry-picked, cytotoxicity control for Shn3 inhibitor project, dose response (AID 624134); format: functional
Paired box protein Pax-8 = Paired box protein Pax-8 (Homo sapiens, UniProt Q06710); assay: PAX8 transcriptional activity inhibition in RMG-I – RMG-I cells, luciferase, cherry-pick, dose response (AID 687027); format: functional, cell-based;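 further: luciferase reporter driven by Pax8 target thyroperoxidase promoter measured by SteadyGlo luminescence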
Chain of Paired box protein Pax-8 (Q06710 whole entry): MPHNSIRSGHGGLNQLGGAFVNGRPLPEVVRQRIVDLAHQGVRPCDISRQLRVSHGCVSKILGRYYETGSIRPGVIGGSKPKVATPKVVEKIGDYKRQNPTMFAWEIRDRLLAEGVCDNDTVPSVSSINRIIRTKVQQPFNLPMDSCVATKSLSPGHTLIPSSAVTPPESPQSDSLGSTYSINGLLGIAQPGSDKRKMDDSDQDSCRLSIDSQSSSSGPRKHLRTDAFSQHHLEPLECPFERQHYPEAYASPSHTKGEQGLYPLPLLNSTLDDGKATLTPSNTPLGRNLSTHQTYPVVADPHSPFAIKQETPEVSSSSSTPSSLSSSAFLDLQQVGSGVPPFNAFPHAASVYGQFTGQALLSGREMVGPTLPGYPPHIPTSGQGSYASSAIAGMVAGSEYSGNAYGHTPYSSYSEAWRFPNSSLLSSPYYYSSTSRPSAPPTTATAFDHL

[17] = viability loss in HeLa cells – cytotoxicity control for MgcRacGAP inhibitor project, dose response (AID 624300); format: functional
[18] = A549 cell cytotoxicity, dose response, cytotoxicity control, plate reader, cherry-pick, antagonist series (AID 743412); format: functional, cell-based
[19] = toxicity toward HepG2 liver cells – cell-based, plate reader, cherry-pick, antagonist series, cytotoxicity control, dose response (AID 743416); format: functional
[20] = blockade of melanocortin 4 receptor signaling – cell-based, plate reader, cherry pick, counter-screen for LGR2 antagonist project, dose response (AID 743444); format: functional;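 further: transfected HEK 293 cells stimulated with alpha-MSH peptide; potency of inhibitors of the alpha-MSH evoked signal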
[21] = blockers of bursicon-stimulated LGR2 cAMP reporter – cell-based, HEK293, CRE-luciferase reporter, cherry pick, set 2, dose response (AID 743343); format: functional;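 further: transfected cells were stimulated with diluted bursicon conditioned medium after compound addition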
[22] = rise of 4N DNA cells, HeLa – IC50, dose response (AID 1117351); format: functional, cell-based
[23] = rise of 2N DNA cells, HeLa – IC50, dose response (AID 1117349); format: functional, cell-based

In the case of O=C(CN(c1cccc(C(F)(F)F)c1)S(=O)(=O)c1ccc(Cl)c([N+](=O)[O-])c1)NCc1ccc(F)cc1, the AC50 [1] is reported as 1.81 µM (active) and the IC50 [2] is reported as 5.86 µM (active).

In the case of SC1=NC[C@H](c2ccccc2)N1CCCCC1CCCCC1, the IC50 [3] is reported as 79.3 µM (inactive) and the IC50 [4] is reported as > 109 µM (inactive).

With CCN(CC)CC(=O)Nc1ccc2c(c1)N(C(=O)CN(CC)CC)c1ccccc1CC2 the IC50 [5] was 19.1 µM (active) and the IC50 [6] was 15.4 µM (active).

In the case of COc1cccc(-n2c(SCC(N)=O)nnc2-c2ccco2)c1, the AC50 [7] is reported as 22.1 µM (active).

In the case of Oc1ccc(N=Nc2nc(-c3ccccc3)c(-c3ccccc3)[nH]2)cc1, the IC50 (Phospholipase A2) is reported as 6.36 µM (active), the AC50 [1] is reported as 3.9 µM (active) and the AC50 [8] is reported as 4.75 µM (active). The IC50 (Cysteine protease ATG4B) was 9.13 µM (active).

With COc1ccc2c(c1)-c1nc(N)sc1CC2 the IC50 [9] was 23.8 µM (active) and the IC50 [10] was 29.5 µM (active).

With CC(NC(=O)CCc1nnc(CCCc2ccccc2)o1)c1ccccc1 (stereo not given) the IC50 [3] was > 83.3 µM (inactive) and the IC50 [4] was > 109 µM (inactive).

For Cc1cc(C)nc(N=C(Nc2ccccc2Br)NS(=O)(=O)Cc2ccccc2)n1, the AC50 (HEK293 [11]) was 33.5 µM (active).

With O=C(Nc1ccccc1)C(Cl)C(=O)c1ccccc1 (stereo not given) the AC50 [8] was 0.786 µM (active).

In the case of COc1ccc(S(=O)(=O)NCc2ccc(C(=O)NCc3cccnc3)cc2)cc1, the IC50 [3] is reported as > 83.3 µM (inactive) and the IC50 [4] is reported as > 109 µM (inactive).

For O=C(CCc1nc2ccccc2[nH]1)N1CCc2ccccc2C1, the IC50 [5] was > 100 µM (inactive) and the IC50 [6] was 17.6 µM (active).

With O=C(NNC(=O)c1ccccc1O)c1ccc(Br)cc1 the IC50 (HEK293 [12]) was > 67.5 µM (inactive) and the IC50 [13] was > 67.5 µM (inactive).

In the case of CCCCC(=O)/N=C(\N)Nc1nc2ccccc2o1, the IC50 (HEK293 [12]) is reported as > 67.6 µM (inactive) and the IC50 [13] is reported as > 67.6 µM (inactive).

In the case of CC(C)(C)OC(=O)NCCCCCNC(=O)c1[nH]cnc1C(=O)N1CCc2ccccc2C1, the IC50 [5] is reported as > 100 µM (inactive) and the IC50 [6] is reported as 14.9 µM (active).

In the case of Cc1cccc(COC(=O)CCCNC(=O)c2ccc(Cl)cc2)c1, the AC50 [8] is reported as 8.04 µM (active).

In the case of O=C1c2ccccc2[C@@H]2C[C@@H](O)[C@H](Nc3cccc4ccccc34)CCN12, the AC50 (Vero) is reported as 29.8 µM (active).

With O=C(O)c1ccc(CNCc2cccc(Cl)c2)cc1 the AC50 [7] was > 30 µM (inactive).

For O=C(NN=Cc1ccc(N(CCCl)CCCl)cc1Cl)c1cccnc1, the AC50 (HEK293 [11]) was 1.26 µM (active).

For CC(CNC(=O)Cn1ccc(NC(=O)OCc2ccccc2)nc1=O)c1ccccc1 (stereo not given), the AC50 (Vero) was 24.6 µM (active).

With CC(OC(=O)c1ccc2c(=O)n3c(nc2c1)CCC3)C(=O)NC1CCCCC1C (stereo not given) the AC50 (Vero) was 31.1 µM (active).

In the case of CCOc1ccc(NC(=O)COC(=O)Cc2ccsc2)cc1, the AC50 [7] is reported as 22.3 µM (active).

For C=C1C(=O)[C@]23C[C@H]1CCC2[C@]1(C)CCC[C@@](C)(C(=O)O)C1C[C@@H]3O (stereo not given in full), the AC50 [14] was 8.47 µM (active), the AC50 [15] was 1.2 µM (active) and the AC50 [16] was > 70 µM (inactive). For the same molecule, the AC50 (Paired box protein Pax-8) was 1.77 µM (active) and the IC50 [2] was 7.03 µM (active).

In the case of O=c1c(-c2ccccc2)c[nH]n1-c1cccc([N+](=O)[O-])c1, the CC50 [17] is reported as 100 µM (active), the IC50 [10] is reported as 48.4 µM (active) and the IC50 (HEK293 [12]) is reported as > 67.5 µM (inactive). For the same molecule, the IC50 [13] was > 67.5 µM (inactive).

With C[C@H]1CN([C@@H](C)CO)C(=O)c2cccc(NC(=O)NC3CCCCC3)c2O[C@@H]1CN(C)Cc1ccc(C(F)(F)F)cc1 the AC50 [18] was 19.2 µM (active), the AC50 [19] was 26.4 µM (active) and the AC50 [20] was 17.1 µM (active). For the same molecule, the AC50 [21] was 46.4 µM (active).

In the case of CC(C)=CCC/C(C)=C/CC/C(C)=C/C(=O)OCC(=O)[C@@]1(O)CC[C@H]2[C@@H]3CCC4=CC(=O)C=C[C@]4(C)[C@H]3[C@@H](O)C[C@@]21C, the IC50 [22] is reported as > 10 µM (inactive) and the IC50 [23] is reported as > 10 µM (inactive).

With O=C(CNc1cccc2ccccc12)N/N=C/c1ccc(OC(=O)/C=C/c2ccco2)cc1 the IC50 [9] was > 50 µM (not active).
